{"source": "paper PMC4150738", "about": "(Analytica chimica acta, 2014)", "key": {"[1]": {"experiment": "Short-term stability in fortified plasma", "assay_type": "physicochemical, human"}, "[2]": {"conditions": "for plasma concentration, Without hydrolysis / plasma concentration, Hydrolysis: LOQ 0.25 μg L^−1; for plasma concentration, Hydrolysis: with hydrolysis"}, "[3]": {"conditions": "High QC 750 μg L^−1, n=5, vs freshly fortified"}, "[4]": {"conditions": "Low QC 0.75 μg L^−1, n=5, vs freshly fortified"}, "[5]": {"conditions": "Medium QC 25 μg L^−1, n=5, vs freshly fortified"}, "[6]": {"conditions": "rat plasma, 0.5 mg kg-1 MDPV ip, 10 min"}, "[7]": {"conditions": "rat plasma, 0.5 mg kg-1 MDPV ip, 20 min"}, "[8]": {"conditions": "rat plasma, 0.5 mg kg-1 MDPV ip, 30 min"}, "[9]": {"conditions": "rat plasma, 0.5 mg kg-1 MDPV ip, 60 min"}, "[10]": {"conditions": "rat plasma, 0.5 mg kg-1 MDPV ip, 120 min"}, "[11]": {"conditions": "rat plasma, 0.5 mg kg-1 MDPV ip, 240 min"}, "[12]": {"conditions": "rat plasma, 0.5 mg kg-1 MDPV ip, 480 min"}, "[13]": {"conditions": "rat plasma, 0.5 mg kg-1 MDPV sc, 10 min"}, "[14]": {"conditions": "rat plasma, 0.5 mg kg-1 MDPV sc, 20 min"}, "[15]": {"conditions": "rat plasma, 0.5 mg kg-1 MDPV sc, 30 min"}, "[16]": {"conditions": "rat plasma, 0.5 mg kg-1 MDPV sc, 60 min"}, "[17]": {"conditions": "rat plasma, 0.5 mg kg-1 MDPV sc, 120 min"}, "[18]": {"conditions": "rat plasma, 0.5 mg kg-1 MDPV sc, 240 min"}, "[19]": {"conditions": "rat plasma, 0.5 mg kg-1 MDPV sc, 480 min"}}, "note": "Read-outs that look alike come from different tables or passages of the source.", "data": [{"smiles": "CCCC(C(=O)c1ccc(O)c(OC)c1)N1CCCC1", "note": "(stereo not shown) [4-OH-3-MeO-PV, 4-hydroxy-3-methoxypyrovalerone]", "values": [{"measurement": "Stability (% difference) 3 freeze-thaw cycles", "setting": "[1]; [3]", "value": "−0.5", "unit": "% difference"}, {"measurement": "Stability (% difference) 72h at 4°C", "setting": "[1]; [3]", "value": "−1.5", "unit": "% difference"}, {"measurement": "Stability (% difference) 3 freeze-thaw cycles", "setting": "[1]; [4]", "value": 3.5, "unit": "% difference"}, {"measurement": "Stability (% difference) 72h at 4°C", "setting": "[1]; [4]", "value": 3.9, "unit": "% difference"}, {"measurement": "Stability (% difference) 3 freeze-thaw cycles", "setting": "[1]; [5]", "value": "−0.5", "unit": "% difference"}, {"measurement": "Stability (% difference) 72h at 4°C", "setting": "[1]; [5]", "value": 6, "unit": "% difference"}, {"measurement": "change of plasma concentration without the deconjugation step (hydrolysis)", "setting": "[2]; rat plasma after 0.5 mg kg-1 MDPV ip or sc, with vs without hydrolysis", "value": "greatly decreased"}, {"measurement": "form present in rat plasma", "setting": "[2]; rat plasma after MDPV, concluded from hydrolysis comparison", "value": "primarily present as the conjugated forms"}, {"measurement": "plasma concentration, Without hydrolysis", "setting": "[2]; rat plasma, 0.5 mg kg-1 MDPV ip, 0 min (before dosing)", "value": "<LOQ"}, {"measurement": "plasma concentration, Hydrolysis", "setting": "[2]; [6]", "value": 9.3, "unit": "ng/mL"}, {"measurement": "plasma concentration, Without hydrolysis", "setting": "[2]; [6]", "value": 0.9, "unit": "ng/mL"}, {"measurement": "plasma concentration, Hydrolysis", "setting": "[2]; [7]", "value": 11.8, "unit": "ng/mL"}, {"measurement": "plasma concentration, Without hydrolysis", "setting": "[2]; [7]", "value": 0.7, "unit": "ng/mL"}, {"measurement": "plasma concentration, Hydrolysis", "setting": "[2]; [8]", "value": 12.3, "unit": "ng/mL"}, {"measurement": "plasma concentration, Without hydrolysis", "setting": "[2]; [8]", "value": 0.7, "unit": "ng/mL"}, {"measurement": "plasma concentration, Hydrolysis", "setting": "[2]; [9]", "value": 14.1, "unit": "ng/mL"}, {"measurement": "plasma concentration, Without hydrolysis", "setting": "[2]; [9]", "value": "<LOQ"}, {"measurement": "plasma concentration, Hydrolysis", "setting": "[2]; [10]", "value": 68.9, "unit": "ng/mL"}, {"measurement": "plasma concentration, Without hydrolysis", "setting": "[2]; [10]", "value": 0.5, "unit": "ng/mL"}, {"measurement": "plasma concentration, Hydrolysis", "setting": "[2]; [11]", "value": 84.7, "unit": "ng/mL"}, {"measurement": "plasma concentration, Without hydrolysis", "setting": "[2]; [11]", "value": 0.5, "unit": "ng/mL"}, {"measurement": "plasma concentration, Hydrolysis", "setting": "[2]; [12]", "value": 23.6, "unit": "ng/mL"}, {"measurement": "plasma concentration, Without hydrolysis", "setting": "[2]; [12]", "value": "<LOQ"}, {"measurement": "plasma concentration, Without hydrolysis", "setting": "[2]; rat plasma, 0.5 mg kg-1 MDPV sc, 0 min (before dosing)", "value": "<LOQ"}, {"measurement": "plasma concentration, Hydrolysis", "setting": "[2]; [13]", "value": 3.2, "unit": "ng/mL"}, {"measurement": "plasma concentration, Without hydrolysis", "setting": "[2]; [13]", "value": 1.1, "unit": "ng/mL"}, {"measurement": "plasma concentration, Hydrolysis", "setting": "[2]; [14]", "value": 6.1, "unit": "ng/mL"}, {"measurement": "plasma concentration, Without hydrolysis", "setting": "[2]; [14]", "value": 1.2, "unit": "ng/mL"}, {"measurement": "plasma concentration, Hydrolysis", "setting": "[2]; [15]", "value": 6.7, "unit": "ng/mL"}, {"measurement": "plasma concentration, Without hydrolysis", "setting": "[2]; [15]", "value": 1.1, "unit": "ng/mL"}, {"measurement": "plasma concentration, Hydrolysis", "setting": "[2]; [16]", "value": 11, "unit": "ng/mL"}, {"measurement": "plasma concentration, Without hydrolysis", "setting": "[2]; [16]", "value": 0.9, "unit": "ng/mL"}, {"measurement": "plasma concentration, Hydrolysis", "setting": "[2]; [17]", "value": 44.7, "unit": "ng/mL"}, {"measurement": "plasma concentration, Without hydrolysis", "setting": "[2]; [17]", "value": 0.7, "unit": "ng/mL"}, {"measurement": "plasma concentration, Hydrolysis", "setting": "[2]; [18]", "value": 54.4, "unit": "ng/mL"}, {"measurement": "plasma concentration, Without hydrolysis", "setting": "[2]; [18]", "value": 0.4, "unit": "ng/mL"}, {"measurement": "plasma concentration, Hydrolysis", "setting": "[2]; [19]", "value": 11, "unit": "ng/mL"}, {"measurement": "plasma concentration, Without hydrolysis", "setting": "[2]; [19]", "value": "<LOQ"}, {"measurement": "plasma concentration range after intraperitoneal dosing", "setting": "[2]; rat plasma, 0.5 mg kg^−1 MDPV intraperitoneal, samples 10-480 min after dosing", "value": "9.3 to 84.7", "unit": "ng/mL"}, {"measurement": "plasma concentration range after the subcutaneous dose", "setting": "[2]; rat plasma, 0.5 mg kg^−1 MDPV subcutaneous, samples 10-480 min after dosing", "value": "3.2 to 54.4", "unit": "ng/mL"}]}]}
